PMC7230232, “Secondary Metabolites from the Culture of the Marine-derived Fungus Paradendryphiella salina PC 362H and Evaluation of the Anticancer Activity of Its Metabolite Hyalodendrin” (Marine Drugs, 2020)
Where “and” joins values, the source holds several entries; their conditions need not be identical. Equal values may be shown once. Read-outs that look alike come from different tables or passages of the source.

Assays:
MCF7 cells = experiment: MTT cell viability assay, MCF7; assay type: cell-based, human; details: Homo sapiens
Method: (§1) Cellular viability was determined by the MTT (methylthiazolyldiphenyl-tetrazolium bromide) assay. Briefly, cells were exposed to the indicated concentrations of crude extracts or compounds 1–4 for five doubling times and then incubated for 3 h at 37 °C with MTT. Formazan crystals were then dissolved in DMSO and optical density measured at 570 nm in a microplate reader. The half-maximal inhibitory concentration (IC50) was determined. Values given for crude extracts are averages of at least two experiments done in duplicate. IC50 values calculated for the four isolated compounds and the commercially available 4-hydroxy-tamoxifen (Sigma-Aldrich) are averages of at least three experiments done in duplicate.

MCF7-Sh-WISP2 cells [1] = experiment: MTT cell viability assay, MCF7-Sh-WISP2; assay type: cell-based, human; details: for IC50: Homo sapiens
Method: as §1

SW48 = experiment: MTT cell viability assay, SW48; assay type: cell-based; details: Homo sapiens, colon
Method: as §1

HT29 oxa = experiment: MTT cell viability assay, HT29 oxa; assay type: cell-based; details: Homo sapiens, HT-29; colon; oxaliplatin resistant
Method: as §1

HT29 SN-38 = experiment: MTT cell viability assay, HT29 SN-38; assay type: cell-based; details: Homo sapiens, HT-29; colon; SN-38 resistant
Method: as §1

HCT116 = experiment: MTT cell viability assay, HCT116; assay type: cell-based; details: Homo sapiens, HCT-116; colon
Method: as §1

HCT116 oxa = experiment: MTT cell viability assay, HCT116 oxa; assay type: cell-based; details: Homo sapiens, HCT-116; colon; oxaliplatin resistant
Method: as §1

HCT116 SN-38 = experiment: MTT cell viability assay, HCT116 SN-38; assay type: cell-based; details: Homo sapiens, HCT-116; colon; SN-38 resistant
Method: as §1

LOVO = experiment: MTT cell viability assay, LOVO; assay type: cell-based; details: Homo sapiens, colon
Method: as §1

RKO = experiment: MTT cell viability assay, RKO; assay type: cell-based; details: Homo sapiens, colon
Method: as §1

LS174T = experiment: MTT cell viability assay, LS174T; assay type: cell-based; details: Homo sapiens, colon
Method: as §1

C19 = experiment: MTT cell viability assay, C19 immortalized fibroblasts; assay type: cell-based; details: Homo sapiens, Fibroblast; normal; fibroblastic
Method: as §1

[2] = molecular target: T1, NADPH-dependent thioredoxin reductase (Trr1) (Saccharomyces cerevisiae, UniProt P29509); experiment: In vitro reduction by NADPH thioredoxin reductase alone (NADPH consumption); assay type: biochemical; details: yeast NTR (Trr1) alone, versus ACN control
T1 construct: made in house
T1 sequence (P29509 whole entry): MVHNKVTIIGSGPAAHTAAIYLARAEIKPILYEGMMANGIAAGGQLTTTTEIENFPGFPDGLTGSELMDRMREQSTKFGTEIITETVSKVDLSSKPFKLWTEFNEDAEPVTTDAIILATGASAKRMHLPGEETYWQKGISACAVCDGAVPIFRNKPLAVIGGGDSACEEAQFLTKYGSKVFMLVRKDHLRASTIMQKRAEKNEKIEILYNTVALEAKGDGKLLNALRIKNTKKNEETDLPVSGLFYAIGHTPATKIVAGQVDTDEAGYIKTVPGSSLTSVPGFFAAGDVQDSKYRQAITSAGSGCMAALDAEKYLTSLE
Method: (§2) Thioredoxin 1 (Trx1) and NADPH-dependent thioredoxin reductase (Trr1) from Saccharomyces cerevisiae were cloned and produced as described previously. Thioredoxin activity was measured spectrophotometrically (Uvikon XS; Secomam) in 1 mL cuvette by following NADPH consumption at 340 nm over 2 min. The reaction was performed in 100 µM NADPH, 246 nM of Trr1 in 30 mM Tris-HCl buffer (pH 7.9) and in the presence or not of 65 nM of Trx1. The reaction was initiated by adding 10 µL of 50 mM of 3 in acetonitrile or 10 µL of acetonitrile (ACN, Control experiment). For each condition, NADPH consumption experiments were performed in triplicate and results were represented as the mean ± SD. The significance of the results was evaluated by Student’s t-test.

[3] = molecular target: T2, thioredoxin system (Trr1+Trx1) (Saccharomyces cerevisiae, UniProt P22217); experiment: In vitro reduction by the reconstituted thioredoxin system (NADPH consumption); assay type: biochemical; details: versus ACN control
T2 construct: made in house
T2 sequence (P22217 whole entry): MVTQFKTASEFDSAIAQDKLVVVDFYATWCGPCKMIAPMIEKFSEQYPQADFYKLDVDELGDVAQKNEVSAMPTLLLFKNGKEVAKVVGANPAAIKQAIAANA
Method: as §2

MCF7-Sh-WISP2 cells [4] = experiment: Intracellular signaling array and immunoblotting; assay type: cell-based, human
Method: MCF7-Sh-WISP2 cells were treated for 48 h with 2.8 µM of 3 (corresponding to 3.8 × 10^−5 nmol of drug per cell), harvested and lysed on ice for 5 min with 0.5 mL of cell lysis buffer containing a cocktail of protease inhibitors. The lysates were centrifuged at 14,000 g for 1 min at 4 °C. Intracellular signaling molecules were detected using a PathScan® intracellular signaling array kit (# 7323, Cell Signaling Technology) according to the manufacturer’s procedure. The chemiluminescent images of the slide were captured with the Chemidoc system (Biorad).
(§3) MCF7-Sh-WISP2 cells were incubated for 72 h at 37 °C with 2.4 µM of 3 (corresponding to 3.8 × 10^−5 nmol of drug per cell). Cells were then washed twice with Phosphate-Buffer Saline (PBS) 1X and lysed for 30 min in RIPA buffer (150 mM NaCl, 1.0% IGEPAL® CA-630, 0.5% sodium deoxycholate, 0.1% SDS, 50 mM Tris, pH 8.0). Proteins (20 µg) were resolved on sodium dodecyl sulfate polyacrylamide gel (SDS/PAGE) (12%) and blotted onto nitrocellulose membranes (Bio-Rad). […] Antigens were detected using an enhanced chemiluminescence kit (Biorad) using the Chemidoc system (Biorad). Protein quantitation was calculated using Image Lab software developed by Bio-Rad.

MCF7-Sh-WISP2 cells [5] = experiment: Human cell stress array and immunoblotting; assay type: cell-based
Method: MCF7-Sh-WISP2 cells were treated for 48 h with 5.7 µM of 3 (corresponding to 3.8 × 10^−5 nmol of drug per cell), harvested and lysed for 30 min on ice with 0.4 mL of cell lysis buffer containing a cocktail of protease inhibitors. The lysates were centrifuged at 14,000 g for 5 min at 4 °C. Human cell stress proteins were detected using the Proteome Profiler human cell stress array kit (# ARY018, R&D systems) according to the manufacturer’s instructions. The chemiluminescent images of the slide were captured with the Chemidoc system (Biorad).
as §3

MCF7-Sh-WISP2 cells [6] = experiment: γ-H2AX foci immunofluorescence; assay type: cell-based, human; details: 1 µM

CN1C(=O)[C@@]2(Cc3ccccc3)SS[C@]1(CO)C(=O)N2C [Compound 3, (3R, 6R) Hyalodendrin]
IC50 (MCF7 cells; MCF7, read-out: IC50 MCF7, breast, epithelial): 216 ± 6 nM | IC50 (MCF7 cells; MCF7, read-out: IC50 MCF7, pure compounds, MTT): 0.07 µg/mL and 220 nM | IC50 (MCF7-Sh-WISP2 cells [1]; read-out: IC50 MC7-Sh-WISP2): 142 ± 3 nM | IC50 (MCF7-Sh-WISP2 cells [1]; read-out: IC50 MCF7-Sh-WISP2): 0.046 µg/mL and 140 nM | IC50 for MCF7-Sh-WISP2 expressed as amount of 3 per cell (MCF7-Sh-WISP2 cells [1]; corresponds to IC50 of 140 nM in the viability assay): 3.8 × 10^−5 nmol of 3 per cell | IC50 (SW48): 149 ± 15.5 nM | IC50 (HT29 oxa): 142 ± 2.6 nM | IC50 (HT29 SN-38): 93.8 ± 13.6 nM | IC50 (HCT116): 48 ± 9.3 nM | IC50 (HCT116 oxa): 25.7 ± 4.2 nM | IC50 (HCT116 SN-38): 43.8 ± 4.2 nM | IC50 (LOVO): 73.4 ± 16.4 nM | IC50 (RKO): 74.3 ± 1.9 nM | IC50 (LS174T): 158 ± 13 nM | IC50 (C19): 252 ± 20.5 nM | NADPH consumption increase [2]: ca. three | NADPH consumption increase [3]: ~14 folds | phosphorylation of p53 on serine 15 (MCF7-Sh-WISP2 cells [4]; 2.8 µM for 48 h (array), 2.4 µM for 72 h (Western blot)): increased phosphorylation | PRAS40 protein expression levels (MCF7-Sh-WISP2 cells [4]; Western blot, 2.4 µM for 72 h): general decrease | cleavage of PARP or caspase-3 (MCF7-Sh-WISP2 cells [4]; signaling array): no cleavage | phosphorylation of p53 on serine 46 (MCF7-Sh-WISP2 cells [5]; 5.7 µM for 48 h (array), 2.4 µM for 72 h (Western blot)): decreased phosphorylation | BAX expression (MCF7-Sh-WISP2 cells [5]; Western blot, 2.4 µM for 72 h): decreased expression | expression levels of HSP60 and HSP70 proteins (MCF7-Sh-WISP2 cells [5]; array, 5.7 µM for 48 h): marked decrease | p21 protein expression levels (MCF7-Sh-WISP2 cells [5]; array, 5.7 µM for 48 h): no increase | γ-H2AX signal (MCF7-Sh-WISP2 cells [6]; 24 and 48 h): punctuated labeling in their nucleus | γ-H2AX signal (MCF7-Sh-WISP2 cells [6]; 3 h): no γ-H2AX signal could be detected
